The results in this text go back to PMC6503470, “Antibacterial Oligomeric Polyphenols from the Green Alga Cladophora socialis” (The Journal of Organic Chemistry, 2019).

Each structure is given as a SMILES string. ≈ marks a conversion by molar mass, not a printed value. Read-outs that look alike come from different tables or passages of the source. A value given as a limit tells only on which side of the number the result lay.

Series [1] concerns wild type Candida albicans (WTCA, ATCC 32354). As to the kind of experiment: Antifungal MIC assay, wild type C. albicans. The series is classed as cell-based. As to conditions: ATCC32354, MIC90, values expressed as 95% confidence interval, read-out: Minimal inhibitory concentration, WTCA.
Series [2] has as its system P. falciparum strain Dd2L. As to the kind of experiment: Parasite proliferation assay, asexual blood-stage P. falciparum, SYBR Green. The series is classed as cell-based. As to conditions: Plasmodium falciparum. Here is the method:
Antimalarial activity was assessed using a standard parasite proliferation assay with asexual blood-stage P. falciparum and SYBR Green detection.[22] Screening media (complete media supplemented with 0.05% Albumax II but without human serum) and fresh O^+ erythrocytes (TSRI Normal Blood Donation) were used for cultures of P. falciparum strain Dd2L (gift from Dr. David Fidock, Colombia University). A Labcyte ECHO acoustic liquid handler transferred compounds into assay plates. The plates were inoculated (Multi-Flo; BioTek, VT) with parasitized erythrocytes and fresh erythrocytes prepared in screening media, resulting in a final parasitemia of 0.3% and hematocrit of 2.5%. A chamber with a low oxygen gas mixture at 37 °C was used to culture the assay plates for 72 h with daily gas exchanges. SYBR Green lysis buffer was added to the wells after incubation using a Multi-Flo liquid dispenser, and plates were incubated at room temperature for an additional 24 h to achieve optimal development of the fluorescence signal which was read by an Envision Multimode Reader (PerkinElmer, MA). The positive controls used were atovaquone (EC50 = 0.0006 μM) and artemisinin (EC50 = 0.03 μM).

The test system of series [3] is vancomycin-resistant Enterococcus faecium (VREF, ATCC 700221). In words: Antibacterial MIC assay, VREF. The format is cell-based. The following applies: ATCC700221, MIC90, values expressed as 95% confidence interval, read-out: Minimal inhibitory concentration, VREF.
The subject of series [4] is Escherichia coli (EC, ATCC 25922). As to the kind of experiment: Antibacterial MIC assay, E. coli. The format is cell-based.
Series [5] relates to amphotericin B-resistant C. albicans (ARCA, ATCC 90873). In words: Antifungal MIC assay, amphotericin B-resistant C. albicans. The series is classed as cell-based. The following applies: Candida albicans, ATCC90873; MIC90; values expressed as 95% confidence interval; read-out: Minimal inhibitory concentration, ARCA.
Series [6] is described as follows: Antibacterial MIC assay, Gram-negative panel. The series is classed as cell-based, Gram-negative bacteria (panel). The following applies: one value for the whole panel of Gram-negative strains; read-out: Minimal inhibitory concentration, Gram–.
Series [7] concerns methicillin-resistant Staphylococcus aureus (MRSA, ATCC 33591). As to the kind of experiment: Antibacterial MIC assay, MRSA. The following applies: for MIC: Staphylococcus aureus, read-out: Minimal inhibitory concentration, MRSA. The format is cell-based.
Series [8] can be described thus: Cytotoxicity, human kidney cells. The series is classed as cell-based. The following applies: human, HEK293T cells (human kidney cells); read-out: half maximal cytotoxicity concentration (CC50), HEK293T.
Series [9] concerns human kidney cells (HEK293T). In words: Cytotoxicity, human kidney cells. As to conditions: at the compound's P. falciparum EC50; cell line not restated, HEK293T assumed. The format is cell-based.
In series [10] the test system is MDR Escherichia coli (MDREC, ATCC BAA-1743). As to the kind of experiment: microbe, parasite or virus in culture. As to conditions: ATCCBAA1743, read-out: MIC, MDREC.
[11] abbreviates: positive controls, read-out: EC50, P. falciparum.
[12] abbreviates: MIC90, at least 90% inhibition of growth, values expressed as 95% confidence interval.
[13] abbreviates: asexual blood stages, 72 h, 95% confidence interval, read-out: Half-maximal effective concentration, P. falciparum.
Setting [14] is: ATCC25922, Gram– column, footnote e: tested only against E. coli, read-out: Minimal inhibitory concentration, Gram– (tested only against E. coli).

Consider `C[C@@H]1[C@H](O)[C@@H](C)/C=C/C=C/C=C/C=C/C=C/C=C/C=C/[C@H](O[C@@H]2O[C@H](C)[C@@H](O)[C@H](N)[C@@H]2O)C[C@@H]2O[C@](O)(C[C@@H](O)C[C@@H](O)[C@H](O)CC[C@@H](O)C[C@@H](O)CC(=O)O[C@H]1C)C[C@H](O)[C@H]2C(=O)O` [amphotericin B, reference compound], for which, in series [1], the MIC was 16 ± 1 µg/mL (≈ 17.3 µM).

`C[C@@H]1CC[C@H]2[C@@H](C)C(=O)O[C@@H]3O[C@@]4(C)CC[C@@H]1[C@]32OO4` [artemisinin, reference compound]: the EC50 in series [2] (setting [11]) was found to be 30 nM.

Consider `O=C1C(O)=C([C@H]2CC[C@H](c3ccc(Cl)cc3)CC2)C(=O)c2ccccc21` [atovaquone, reference compound], for which the EC50 in series [2] (setting [11]) worked out at 0.6 nM.

Turning to `O=C(N[C@H](CO)[C@H](O)c1ccc([N+](=O)[O-])cc1)C(Cl)Cl` [chloramphenicol, reference compound], the MIC is < 8 µg/mL in series [3] and < 8 µg/mL in series [4] (ATCC25922, positive control, read-out: MIC, EC).

With `Oc1ccc(-c2ccc(O)c(O)c2)cc1O` [compound 3, 3,4,3′,4′-tetrahydroxy-1,1′-biphenyl], the MIC in series [1], in series [5], in series [3], in [6] and in series [7] (setting [12]) was > 50 µg/mL in each case.

In the case of `O=c1oc2cc(O)c(O)cc2c2cc(O)c(O)cc12` [compound 4, 2,3,8,9-tetrahydroxybenzo[c]chromen-6-one], the MIC in [1], in series [5], in [3], in [6] and in series [7] (setting [12]) was > 50 µg/mL in each case. Besides, in [2] (setting [13]), the EC50 stood at 0.7 ± 0.1 µg/mL. The CC50 in series [8] was determined as 9.4 µg/mL (≈ 36.1 µM). Moreover, in series [9], the “toxicity at the P. falciparum EC50 values” is reported as “no toxicity”.

As to `O=c1oc2c(O)cc(Oc3ccc(-c4ccc(O)c(O)c4)cc3O)cc2c2c(O)c(O)ccc12` [compound 5, 4,9,10-trihydroxy-2-[(3,3′,4′-trihydroxy-(1,1′-biphenyl)-4-yl)oxy]benzo[c]chromen-6-one], the MIC in series [1] is > 50 µg/mL; in series [5], > 50 µg/mL; in [3], > 50 µg/mL; in series [6], > 50 µg/mL; in series [7] (setting [12]) it was 13 to 49 µg/mL (≈ 28.2 to 106 µM). Also, the EC50 in [2] (setting [13]) turned out to be 1.9 ± 0.2 µg/mL. In addition, the CC50 in series [8] came out at 4.5 µg/mL (≈ 9.77 µM). In [9], the “toxicity at the P. falciparum EC50 values” is “no toxicity”. The “Minimal inhibitory concentration, MRSA” value in [7] (setting [12]) is 13 ± 2 µg/mL (≈ 28.2 µM).

Turning to `Oc1ccc(Oc2ccc(Oc3ccc(Oc4ccc(Oc5ccc(Oc6ccc(Oc7ccc(Oc8ccc(-c9ccc(O)c(O)c9)cc8O)cc7O)cc6O)cc5O)cc4O)cc3O)cc2O)cc1O` [compound 6, α-hydro-ω-[3,4-dihydroxyphenyl]octa[oxy(2-hydroxyphen-4-yl)]], the MIC in [1] is 46 ± 13 µg/mL (≈ 47.2 µM); in series [5], 46 ± 9 µg/mL (≈ 47.2 µM); in series [3], > 50 µg/mL; in series [6], > 50 µg/mL; in [7] (setting [12]) it was 1.4 µg/mL (≈ 1.44 µM). Besides, the EC50 in series [2] (setting [13]) is > 2 µg/mL. The “Minimal inhibitory concentration, MRSA” value in series [7] (setting [12]) is 1.4 ± 0.3 µg/mL (≈ 1.44 µM).

On to `Oc1ccc(Oc2ccc(Oc3ccc(Oc4ccc(Oc5ccc(Oc6ccc(Oc7ccc(Oc8ccc(Oc9ccc(-c%10ccc(O)c(O)c%10)cc9O)cc8O)cc7O)cc6O)cc5O)cc4O)cc3O)cc2O)cc1O` [compound 7, α-hydro-ω-[3,4-dihydroxyphenyl]nona[oxy(2-hydroxyphen-4-yl)]], for which the MIC in series [1], in series [5], in series [3] and in series [6] was > 50 µg/mL each time. In addition, the EC50 in series [2] (setting [13]) is > 2 µg/mL.

With `O=c1oc2c(O)cc(Oc3ccc(Oc4ccc(Oc5ccc(Oc6ccc(Oc7ccc(Oc8ccc(Oc9ccc(Oc%10ccc(-c%11ccc(O)c(O)c%11)cc%10O)cc9O)cc8O)cc7O)cc6O)cc5O)cc4O)cc3O)cc2c2cc(O)c(O)cc12` [compound 8, α-[(4,8,9-trihydroxy-2-benzo[c]chromen-6-on-2-yl)oxy]-ω-[3,4-dihydroxyphenyl]octa[oxy(2-hydroxyphen-4-yl)]], the MIC in series [1] was > 50 µg/mL; in series [5], > 50 µg/mL; in [3] it was > 50 µg/mL; in series [4] (setting [14]), > 50 µg/mL; in series [7] (setting [12]) it was 13 to 49 µg/mL (≈ 10.7 to 40.3 µM). Besides, the EC50 in [2] (setting [13]) was > 2 µg/mL. For the same compound, the “Minimal inhibitory concentration, MRSA” value in series [7] (setting [12]) was found to be 25 ± 3 µg/mL (≈ 20.5 µM).

On to `O=c1oc2c(O)cc(Oc3ccc(Oc4ccc(Oc5ccc(Oc6ccc(Oc7ccc(Oc8ccc(Oc9ccc(-c%10ccc(O)c(O)c%10)cc9O)cc8O)cc7O)cc6O)cc5O)cc4O)cc3O)cc2c2cc(O)c(O)cc12` [compound 9, α-[(4,8,9-trihydroxy-2-benzo[c]chromen-6-on-2-yl)oxy]-ω-[3,4-dihydroxyphenyl]hepta[oxy(2-hydroxyphen-4-yl)]], for which the MIC was > 50 µg/mL in series [1]; > 50 µg/mL in [5]; > 50 µg/mL in series [3]; > 50 µg/mL in series [6]; 13 to 49 µg/mL (≈ 11.7 to 44.2 µM) in [7] (setting [12]). In series [2] (setting [13]), the EC50 was > 2 µg/mL. In addition, in [7] (setting [12]), the “Minimal inhibitory concentration, MRSA” value was found to be 14 ± 3 µg/mL (≈ 12.6 µM).

Turning to `O=c1oc2c(O)cc(Oc3ccc(Oc4ccc(Oc5ccc(Oc6ccc(Oc7ccc(Oc8ccc(Oc9ccc(Oc%10ccc(Oc%11ccc(-c%12ccc(O)c(O)c%12)cc%11O)cc%10O)cc9O)cc8O)cc7O)cc6O)cc5O)cc4O)cc3O)cc2c2cc(O)c(O)cc12` [compound 10, α-[(4,8,9-trihydroxy-2-benzo[c]chromen-6-on-2-yl)oxy]-ω-[3,4-dihydroxyphenyl]nona[oxy(2-hydroxyphen-4-yl)]], the MIC in series [1], in [5], in series [3] and in series [6] was > 50 µg/mL in each case. Further, the EC50 in series [2] (setting [13]) was > 2 µg/mL.

In the case of `O=c1oc2c(O)cc(Oc3ccc(Oc4ccc(Oc5ccc(Oc6ccc(Oc7ccc(Oc8ccc(Oc9ccc(Oc%10ccc(Oc%11ccc(Oc%12ccc(-c%13ccc(O)c(O)c%13)cc%12O)cc%11O)cc%10O)cc9O)cc8O)cc7O)cc6O)cc5O)cc4O)cc3O)cc2c2cc(O)c(O)cc12` [compound 11, α-[(4,8,9-trihydroxy-2-benzo[c]chromen-6-on-2-yl)oxy]-ω-[3,4-dihydroxyphenyl]deca[oxy(2-hydroxyphen-4-yl)]], the MIC in series [1], in series [5], in series [3] and in [6] was > 50 µg/mL in each case.

As for `O=c1oc2c(O)cc(Oc3ccc(Oc4ccc(Oc5ccc(Oc6ccc(Oc7ccc(Oc8ccc(Oc9ccc(Oc%10ccc(Oc%11ccc(Oc%12ccc(Oc%13ccc(-c%14ccc(O)c(O)c%14)cc%13O)cc%12O)cc%11O)cc%10O)cc9O)cc8O)cc7O)cc6O)cc5O)cc4O)cc3O)cc2c2cc(O)c(O)cc12` [compound 12, α-[(4,8,9-trihydroxy-2-benzo[c]chromen-6-on-2-yl)oxy]-ω-[3,4-dihydroxyphenyl]undeca[oxy(2-hydroxyphen-4-yl)]], the MIC in series [1], in series [5], in [3] and in series [4] (setting [14]) was > 50 µg/mL throughout.

For the compound `O=C1CN(/N=C/c2ccc([N+](=O)[O-])o2)C(=O)N1` [nitrofurantoin], in series [10], the MIC is 14 ± 1 µg/mL (≈ 58.8 µM).

As to `CN[C@H](CC(C)C)C(=O)N[C@H]1C(=O)N[C@@H](CC(N)=O)C(=O)N[C@H]2C(=O)N[C@H]3C(=O)N[C@H](C(=O)N[C@H](C(=O)O)c4cc(O)cc(O)c4-c4cc3ccc4O)[C@H](O)c3ccc(c(Cl)c3)Oc3cc2cc(c3O[C@@H]2O[C@H](CO)[C@@H](O)[C@H](O)[C@H]2O[C@H]2C[C@](C)(N)[C@H](O)[C@H](C)O2)Oc2ccc(cc2Cl)[C@H]1O` [vancomycin, reference compound], the MIC in series [7] is < 4 µg/mL.
